Experimental data from patent publication US9409905B2, “Antibacterial compounds and methods for use” (PTC THERAPEUTICS, INC., priority 2011, dated 2016).
In brackets after ≈: the same amount, converted by molar mass.

Columns and labels:
[1] = tested on: Klebsiella pneumoniae (K. pneumoniae) 35657; experiment: Antibacterial activity, MIC (Table 4); type: cell-based; details: K. pneumoniae 35657, read-out: MIC, 35657
Description: (§1) The antibacterial activity from a microbroth dilution method may be presented as the minimum inhibitory concentration (MIC in μg/mL). The MIC value is the lowest concentration of drug which prevents macroscopically visible growth under test conditions.
(§2) Antibacterial activity of test compounds against the Gram-negative Acinetobacter baumannii (A. baumannii) BAA747 and Klebsiella pneumoniae (K. pneumoniae) 35657 bacterium and the resistant A. baumannii MXX2240 and K. pneumoniae MXX1232 strains are shown in Table 4. The MMX strains are multi-drug resistant clinical isolates.

[2] = tested on: Acinetobacter baumannii (A. baumannii) BAA747; experiment: Antibacterial activity, MIC (Table 4); type: cell-based; details: A. baumannii BAA747, read-out: MIC, BAA747
Description: as §1, §2

[3] = tested on: E. coli LZ3111; experiment: Antibacterial activity, MIC, quinolone resistant strain (Table 2); type: cell-based; details: Escherichia coli, LZ3111, read-out: MIC LZ3111
Procedure, shortened: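 MIC values (μg/mL) came from a microbroth dilution assay, scored as the lowest drug concentration at which no growth was visible by eye.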

[4] = tested on: E. coli 25922; experiment: Antibacterial activity, microbroth dilution MIC (Table 1); type: cell-based, Escherichia coli; details: Escherichia coli; microbroth dilution; control Gram-negative E. coli 25922 strain; read-out: MIC, 25922
Procedure, shortened: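 Broth microdilution against S. aureus 29213, E. coli 25922 and hypersensitive E. coli BAS849. MIC in μg/mL is the lowest drug concentration preventing macroscopically visible growth under test conditions.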

[5] = tested on: Pseudomonas aeruginosa (P. aeruginosa) 27853; experiment: Antibacterial activity, MIC (Table 5); type: cell-based; details: P. aeruginosa 27853, read-out: MIC, 27853
Description: as §1
Antibacterial activity of test compounds against the Gram-negative bacterium Pseudomonas aeruginosa (P. aeruginosa) 27853 is shown in Table 5.

[6] = tested on: Staphylococcus aureus (S. aureus) 29213; experiment: Antibacterial activity, microbroth dilution MIC (Table 1); type: cell-based; details: microbroth dilution, Gram-positive S. aureus 29213, read-out: MIC, 29213
Procedure, shortened: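 Broth microdilution; endpoint = no macroscopic growth; value = lowest inhibiting concn, μg/mL.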

[7] = tested on: Escherichia coli (E. coli) BAS849; experiment: as above; type: cell-based; details: microbroth dilution, super sensitive Gram-negative E. coli BAS849, read-out: MIC, BAS849
Procedure, shortened: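 Microbroth dilution was used. MIC, in μg/mL, is the lowest drug concentration preventing macroscopically visible growth under the test conditions.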

[8] = tested on: A. baumannii MXX2240; experiment: Antibacterial activity, MIC, resistant strain (Table 4); type: cell-based; details: Acinetobacter baumannii, MXX2240; resistant A. baumannii MMX2240, multi-drug resistant clinical isolate; read-out: MIC, MMX2240
Description: as §1, §2

[9] = tested on: K. pneumoniae MXX1232; experiment: as above; type: cell-based; details: Klebsiella pneumoniae, MXX1232; resistant K. pneumoniae MMX1232, multi-drug resistant clinical isolate; read-out: MIC, MMX1232
Description: as §1, §2

Row | Compound | MIC [1] [µg/mL] | MIC [2] [µg/mL] | MIC [3] [µg/mL] | MIC [4] [µg/mL] | MIC [5] [µg/mL] | MIC [6] [µg/mL] | MIC [7] [µg/mL] | MIC [8] [µg/mL] | MIC [9] [µg/mL]
1 | C=CCc1c(-c2ccc3c(c2)cc(CN(C)C)n3C)[nH]c(=O)c(C(=O)O)c1O [Cpd 339, 5-allyl-6-(2-((dimethylamino)methyl)-1-methyl-1H-indol-5-yl)-4-hydroxy-2-oxo-1,2-dihydropyridine-3-carboxylic acid] | 1 to 3.5 (≈ 2.62 to 9.18 µM) | 3.5 to 12.5 (≈ 9.18 to 32.8 µM) | 3.5 to 12.5 (≈ 9.18 to 32.8 µM) | < 1 | 12.5 to 150 (≈ 32.8 to 393 µM) | 3.5 to 12.5 (≈ 9.18 to 32.8 µM) | < 1 | 3.5 to 12.5 (≈ 9.18 to 32.8 µM) | 12.5 to 150 (≈ 32.8 to 393 µM)
2 | CCc1c(-c2ccc3cc(N(C)C)ccc3c2)[nH]c(=O)c(C(=O)O)c1O [Cpd 428, 6-(6-(dimethylamino)naphthalen-2-yl)-5-ethyl-4-hydroxy-2-oxo-1,2-dihydropyridine-3-carboxylic acid] | 12.5 to 150 (≈ 35.5 to 426 µM) | 12.5 to 150 (≈ 35.5 to 426 µM) | 12.5 to 150 (≈ 35.5 to 426 µM) | 12.5 to 150 (≈ 35.5 to 426 µM) | 12.5 to 150 (≈ 35.5 to 426 µM) | < 1 | < 1 | 12.5 to 150 (≈ 35.5 to 426 µM) | 12.5 to 150 (≈ 35.5 to 426 µM)
3 | CCc1c(-c2ccc3c(c2)cc2n3C[C@H](N)C[C@H]2NC)[nH]c(=O)c(C(=O)O)c1O.Cl.Cl (relative stereo) [Cpd 422, 6-(trans-7-amino-9-(methylamino)-6,7,8,9-tetrahydropyrido[1,2-a]indol-2-yl)-5-ethyl-4-hydroxy-2-oxo-1,2-dihydropyridine-3-carboxylic acid bis-hydrochloride] | 3.5 to 12.5 | 12.5 to 150 | 12.5 to 150 | 12.5 to 150 | 12.5 to 150 | 12.5 to 150 | 1 to 3.5 | 12.5 to 150 | 12.5 to 150
4 | CCc1c(-c2ccc3[nH]c(-c4ccccc4)cc3c2)[nH]c(=O)c(C(=O)O)c1O [Cpd 454, 5-ethyl-4-hydroxy-2-oxo-6-(2-phenyl-1H-indol-5-yl)-1,2-dihydropyridine-3-carboxylic acid] | 12.5 to 150 (≈ 33.4 to 401 µM) | 12.5 to 150 (≈ 33.4 to 401 µM) | 12.5 to 150 (≈ 33.4 to 401 µM) | 12.5 to 150 (≈ 33.4 to 401 µM) | 12.5 to 150 (≈ 33.4 to 401 µM) | < 1 | < 1 | 12.5 to 150 (≈ 33.4 to 401 µM) | 12.5 to 150 (≈ 33.4 to 401 µM)
5 | COCCNCc1cc2cc(-c3[nH]c(=O)c(C(=O)O)c(O)c3C)ccc2n1C [Cpd 341, 4-hydroxy-6-(2-((2-methoxyethylamino)methyl)-1-methyl-1H-indol-5-yl)-5-methyl-2-oxo-1,2-dihydropyridine-3-carboxylic acid] | 3.5 to 12.5 (≈ 9.08 to 32.4 µM) | 3.5 to 12.5 (≈ 9.08 to 32.4 µM) | < 1 | 3.5 to 12.5 (≈ 9.08 to 32.4 µM) | 12.5 to 150 (≈ 32.4 to 389 µM) | 12.5 to 150 (≈ 32.4 to 389 µM) | < 1 | 1 to 3.5 (≈ 2.59 to 9.08 µM) | 12.5 to 150 (≈ 32.4 to 389 µM)
6 | CCc1c(-c2ccc3c(c2)cc2n3CC(NC)C2)[nH]c(=O)c(C(=O)O)c1O.Cl (stereo not drawn) [Cpd 416, 5-ethyl-4-hydroxy-6-(2-(methylamino)-2,3-dihydro-1H-pyrrolo[1,2-a]indol-7-yl)-2-oxo-1,2-dihydropyridine-3-carboxylic acid hydrochloride] | 12.5 to 150 | 12.5 to 150 | 12.5 to 150 | 12.5 to 150 | 12.5 to 150 | 12.5 to 150 | 3.5 to 12.5 | 12.5 to 150 | 12.5 to 150
7 | CCc1cc(C(=O)O)c(=O)[nH]c1-c1cnc2c(ccn2C)c1 [Cpd 31, 5-ethyl-6-(1-methyl-1H-pyrrolo[2,3-b]pyridin-5-yl)-2-oxo-1,2-dihydropyridine-3-carboxylic acid] | 12.5 to 150 (≈ 42 to 505 µM) | 12.5 to 150 (≈ 42 to 505 µM) | 12.5 to 150 (≈ 42 to 505 µM) | 12.5 to 150 (≈ 42 to 505 µM) | 12.5 to 150 (≈ 42 to 505 µM) | 12.5 to 150 (≈ 42 to 505 µM) | 1 to 3.5 (≈ 3.36 to 11.8 µM) | 12.5 to 150 (≈ 42 to 505 µM) | 12.5 to 150 (≈ 42 to 505 µM)
8 | CCc1c(-c2ccc3c(c2)cc(CNCc2cccnc2)n3C)[nH]c(=O)c(C(=O)O)c1O.Cl [Cpd 220, 5-ethyl-4-hydroxy-6-(1-methyl-2-((pyridin-3-ylmethylamino)methyl)-1H-indol-5-yl)-2-oxo-1,2-dihydropyridine-3-carboxylic acid hydrochloride] | 3.5 to 12.5 |  | 12.5 to 150 | < 1 |  | 1 to 3.5 | < 1 |  | 12.5 to 150
9 | CCc1c(-c2ccc3c(c2)cc(CN2CCC(O)CC2)n3C)[nH]c(=O)c(C(=O)O)c1O [Cpd 254, 5-ethyl-4-hydroxy-6-(2-((4-hydroxypiperidin-1-yl)methyl)-1-methyl-1H-indol-5-yl)-2-oxo-1,2-dihydropyridine-3-carboxylic acid] | 3.5 to 12.5 (≈ 8.23 to 29.4 µM) |  | 12.5 to 150 (≈ 29.4 to 353 µM) | 1 to 3.5 (≈ 2.35 to 8.23 µM) |  | 3.5 to 12.5 (≈ 8.23 to 29.4 µM) | < 1 |  | 12.5 to 150 (≈ 29.4 to 353 µM)
